Data: PubChem BioAssay (NCI)
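All cell lines were grown in 96-well plates and treated with compound for 48 hours. At the TGI there is no net growth.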

Assays:
Test in all cases: growth of human tumour cells (NCI), 48 h
[1] = test system: HCC-2998 colon
[2] = test system: NCI/ADR-RES ovarian
[3] = test system: SK-MEL-28 melanoma
[4] = test system: UACC-257 melanoma
[5] = test system: SK-OV-3 ovarian
[6] = test system: CCRF-CEM leukemia
[7] = test system: M14 melanoma
[8] = test system: 786-0 renal
[9] = test system: SF-539 CNS
[10] = test system: RXF 393 renal
[11] = test system: EKVX NSCLC
[12] = test system: OVCAR-3 ovarian
[13] = test system: HCT-15 colon
[14] = test system: HOP-62 NSCLC
[15] = test system: OVCAR-5 ovarian
[16] = test system: SW-620 colon
[17] = test system: MDA-MB-435
[18] = test system: RPMI-8226 leukemia
[19] = test system: NCI-H23 lung
[20] = test system: OVCAR-4 ovarian
[21] = test system: MDA-N
[22] = test system: PC-3 prostate
[23] = test system: K-562 leukemia
[24] = test system: SF-268 CNS
[25] = test system: SK-MEL-2 melanoma
[26] = test system: A498 renal
[27] = test system: MDA-MB-231 breast
[28] = test system: MALME-3M melanoma
[29] = test system: SF-295 CNS
[30] = test system: NCI-H226 lung
[31] = test system: CAKI-1 renal
[32] = test system: T-47D breast
[33] = test system: TK-10 renal
[34] = test system: UO-31 renal
[35] = test system: SNB-75 CNS
[36] = test system: MCF7 breast
[37] = test system: COLO 205 colon
[38] = test system: OVCAR-8 ovarian
[39] = test system: KM12 colon
[40] = test system: SNB-19 CNS
[41] = test system: A549 NSCLC
[42] = test system: LOX IMVI melanoma
[43] = test system: NCI-H460 lung
[44] = test system: SK-MEL-5 melanoma
[45] = test system: SN12C renal
[46] = test system: NCI-H522 lung
[47] = test system: BT-549 breast
[48] = test system: ACHN renal
[49] = test system: HCT-116 colon

Cc1cc2nc3c(C#N)c(-c4ccccc4)cc(Nc4cccc(C(F)(F)F)c4)n3c2cc1C
TGI [1]: 14.3 µM
TGI [2]: 20.2 µM
TGI [3]: 50.6 µM
TGI [4]: 54.3 µM
TGI [5]: 44 µM
TGI [6]: > 100 µM
TGI [7]: 60.3 µM
TGI [8]: 18.6 µM
TGI [9]: 13.6 µM
TGI [10]: 22.9 µM
TGI [11]: 37.9 µM
TGI [12]: 8.41 µM
TGI [13]: 22.3 µM
TGI [14]: 35.2 µM
TGI [15]: 47.1 µM
TGI [16]: 20.7 µM
TGI [17]: 30.6 µM
TGI [18]: > 100 µM
TGI [19]: > 100 µM
TGI [20]: 50.5 µM
TGI [21]: 24.7 µM
TGI [22]: 16 µM
TGI [23]: 1.2 µM
TGI [24]: 61.2 µM
TGI [25]: 12.7 µM
TGI [26]: 29.5 µM
TGI [27]: 16.2 µM
TGI [28]: > 100 µM
TGI [29]: 44.6 µM
TGI [30]: 26.5 µM
TGI [31]: 40.2 µM
TGI [32]: > 100 µM
TGI [33]: 33.6 µM
TGI [34]: 25.8 µM
TGI [35]: 72.9 µM
TGI [36]: 22.5 µM
TGI [37]: > 100 µM
TGI [38]: > 100 µM
TGI [39]: > 100 µM
TGI [40]: 80.7 µM
TGI [41]: 16.8 µM
TGI [42]: > 100 µM
TGI [43]: 11.5 µM
TGI [44]: 19.8 µM
TGI [45]: 25.2 µM
TGI [46]: 30.1 µM
TGI [47]: > 100 µM
TGI [48]: 28.5 µM
TGI [49]: 10.8 µM
